Key:
MMP-9 = MMP-9 (Homo sapiens, UniProt P14780); test: K(obs) of individual phage substrates (set of 1369); type: biochemical; details: MMP9
MMP-2 [1] = biological target: T1, MMP-2 (Homo sapiens, UniProt P08253); test: as above; type: biochemical; details: MMP2
T1 sequence (P08253 110-660): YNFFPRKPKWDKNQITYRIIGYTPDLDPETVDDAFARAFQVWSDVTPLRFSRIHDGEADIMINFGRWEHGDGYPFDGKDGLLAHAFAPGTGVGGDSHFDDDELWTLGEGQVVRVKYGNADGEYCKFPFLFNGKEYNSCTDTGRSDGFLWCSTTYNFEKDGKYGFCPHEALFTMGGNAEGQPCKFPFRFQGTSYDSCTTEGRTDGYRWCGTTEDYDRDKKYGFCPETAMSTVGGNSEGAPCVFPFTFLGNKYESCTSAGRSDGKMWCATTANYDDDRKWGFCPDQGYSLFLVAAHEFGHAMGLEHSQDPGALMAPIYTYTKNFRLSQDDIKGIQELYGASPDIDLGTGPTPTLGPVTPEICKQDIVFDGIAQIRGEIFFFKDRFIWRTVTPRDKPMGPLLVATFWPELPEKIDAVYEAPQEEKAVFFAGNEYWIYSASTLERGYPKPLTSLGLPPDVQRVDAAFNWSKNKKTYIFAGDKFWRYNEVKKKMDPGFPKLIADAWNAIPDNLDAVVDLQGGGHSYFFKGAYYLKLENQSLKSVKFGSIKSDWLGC

MMP-2 [2] = test: Substrate phage display with NGS: relative probability (RP) of P3-P1' tetramer clusters; type: biochemical, human; details: MMP2;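 also: ratio of tetramer probability after protease selection to that in naive phage library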
[3] = individual phage substrates, set of 1369 peptides, hyphen in sequence marks cleavage position
[4] = individual phage substrates, set of 1369 peptides, cleavage position marked by hyphen in sequence
[5] = RP of the P3-P1' tetramer contained in the substrate (substrate phage display with NGS)
[6] = individual phage substrate of the set of 1369 peptides, dash in the sequence marks the cleavage position
[7] = individual phage substrate of the set of 1369 peptides, cleavage position marked by '-'
[8] = RP of the P3-P1' tetramer contained in the substrate

Sequence of MMP-9 (P14780 94-707): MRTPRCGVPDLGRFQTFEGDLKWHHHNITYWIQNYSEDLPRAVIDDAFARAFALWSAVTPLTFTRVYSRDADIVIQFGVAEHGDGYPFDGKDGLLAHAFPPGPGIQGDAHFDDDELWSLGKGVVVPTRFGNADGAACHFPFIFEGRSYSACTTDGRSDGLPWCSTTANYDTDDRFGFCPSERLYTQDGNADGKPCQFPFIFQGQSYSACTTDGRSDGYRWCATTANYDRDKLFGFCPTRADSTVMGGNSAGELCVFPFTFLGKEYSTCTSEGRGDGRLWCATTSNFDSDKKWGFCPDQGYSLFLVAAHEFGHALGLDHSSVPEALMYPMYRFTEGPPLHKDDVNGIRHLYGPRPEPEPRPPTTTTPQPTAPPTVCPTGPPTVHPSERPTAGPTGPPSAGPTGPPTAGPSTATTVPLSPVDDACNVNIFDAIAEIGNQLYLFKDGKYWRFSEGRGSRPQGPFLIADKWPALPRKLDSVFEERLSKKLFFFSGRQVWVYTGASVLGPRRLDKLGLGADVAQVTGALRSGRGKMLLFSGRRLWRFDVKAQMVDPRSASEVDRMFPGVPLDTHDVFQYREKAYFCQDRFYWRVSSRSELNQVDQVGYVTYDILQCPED

GMAWG-LRTAS
Kobs (MMP-9; [3]): 7815.03 M⁻¹ s⁻¹ | Kobs (MMP-2 [1]; [4]): 8941.32 M⁻¹ s⁻¹ | relative probability (RP) (MMP-2 [2]; [5]): 17.7408

GMPRY-MTASG
Kobs (MMP-9; [6]): 12792.1 M⁻¹ s⁻¹ | Kobs (MMP-2 [1]; [7]): 4335.13 M⁻¹ s⁻¹ | relative probability (RP) (MMP-2 [2]; [8]): 28.0367

GMPWS-VTASG
Kobs (MMP-9; [3]): 6131.32 M⁻¹ s⁻¹ | Kobs (MMP-2 [1]; [4]): 1513.13 M⁻¹ s⁻¹ | relative probability (RP) (MMP-2 [2]; [5]): 0.3793

GMVFS-IYTAS
Kobs (MMP-9; [6]): 2097.28 M⁻¹ s⁻¹ | Kobs (MMP-2 [1]; [7]): 690.17 M⁻¹ s⁻¹ | relative probability (RP) (MMP-2 [2]; [8]): 0.2237

GMVQH-LITAS
Kobs (MMP-9; [6]): 585.336 M⁻¹ s⁻¹ | Kobs (MMP-2 [1]; [7]): 10866.7 M⁻¹ s⁻¹ | relative probability (RP) (MMP-2 [2]; [8]): 22.9738

GNAIH-LQTAS
Kobs (MMP-9; [6]): 0 M⁻¹ s⁻¹ | Kobs (MMP-2 [1]; [7]): 1196.62 M⁻¹ s⁻¹ | relative probability (RP) (MMP-2 [2]; [8]): 13.4941

GNPLP-QMTAS
Kobs (MMP-9; [3]): 1870.4 M⁻¹ s⁻¹ | Kobs (MMP-2 [1]; [4]): 2157.02 M⁻¹ s⁻¹ | relative probability (RP) (MMP-2 [2]; [5]): 24.381

GNPYK-LTASG
Kobs (MMP-9; [6]): 8941.32 M⁻¹ s⁻¹ | Kobs (MMP-2 [1]; [7]): 1196.62 M⁻¹ s⁻¹ | relative probability (RP) (MMP-2 [2]; [8]): 15.5683

GNSWG-LRTAS
Kobs (MMP-9; [6]): 690.17 M⁻¹ s⁻¹ | Kobs (MMP-2 [1]; [7]): 292.668 M⁻¹ s⁻¹ | relative probability (RP) (MMP-2 [2]; [8]): 0.1389

GNVAN-LTASG
Kobs (MMP-9; [3]): 1327.88 M⁻¹ s⁻¹ | Kobs (MMP-2 [1]; [4]): 12792.1 M⁻¹ s⁻¹ | relative probability (RP) (MMP-2 [2]; [5]): 34.9662

GNVRN-LITAS
Kobs (MMP-9; [3]): 7386.83 M⁻¹ s⁻¹ | Kobs (MMP-2 [1]; [4]): 12792.1 M⁻¹ s⁻¹ | relative probability (RP) (MMP-2 [2]; [5]): 29.2567

GNVRS-LITAS
Kobs (MMP-9; [6]): 2476.66 M⁻¹ s⁻¹ | Kobs (MMP-2 [1]; [7]): 12792.1 M⁻¹ s⁻¹ | relative probability (RP) (MMP-2 [2]; [8]): 12.3051

GPVYN-LRTAS
Kobs (MMP-9; [6]): 12792.1 M⁻¹ s⁻¹ | Kobs (MMP-2 [1]; [7]): 5269.78 M⁻¹ s⁻¹ | relative probability (RP) (MMP-2 [2]; [8]): 19.1818

GQARG-LQTAS
Kobs (MMP-9; [6]): 1660.66 M⁻¹ s⁻¹ | Kobs (MMP-2 [1]; [7]): 3253.29 M⁻¹ s⁻¹ | relative probability (RP) (MMP-2 [2]; [8]): 25.9476

GQPRG-LRTAS
Kobs (MMP-9; [6]): 12792.1 M⁻¹ s⁻¹ | Kobs (MMP-2 [1]; [7]): 12792.1 M⁻¹ s⁻¹ | relative probability (RP) (MMP-2 [2]; [8]): 35.2511

GQPRS-WRTAS
Kobs (MMP-9; [6]): 8941.32 M⁻¹ s⁻¹ | Kobs (MMP-2 [1]; [7]): 9740.44 M⁻¹ s⁻¹ | relative probability (RP) (MMP-2 [2]; [8]): 32.796

GQQMS-LRTAS
Kobs (MMP-9; [3]): 0 M⁻¹ s⁻¹ | Kobs (MMP-2 [1]; [4]): 56.119 M⁻¹ s⁻¹ | relative probability (RP) (MMP-2 [2]; [5]): 0.2763

GQVDY-LMTAS
Kobs (MMP-9; [3]): 0 M⁻¹ s⁻¹ | Kobs (MMP-2 [1]; [4]): 0 M⁻¹ s⁻¹ | relative probability (RP) (MMP-2 [2]; [5]): 1.426

GRAAW-LQTAS
Kobs (MMP-9; [3]): 1465.65 M⁻¹ s⁻¹ | Kobs (MMP-2 [1]; [4]): 12792.1 M⁻¹ s⁻¹ | relative probability (RP) (MMP-2 [2]; [5]): 28.6088

GRARW-LMTAS
Kobs (MMP-9; [6]): 3079.62 M⁻¹ s⁻¹ | Kobs (MMP-2 [1]; [7]): 1561.44 M⁻¹ s⁻¹ | relative probability (RP) (MMP-2 [2]; [8]): 19.0362

GRASH-LMTAS
Kobs (MMP-9; [3]): 726.013 M⁻¹ s⁻¹ | Kobs (MMP-2 [1]; [4]): 4470.66 M⁻¹ s⁻¹ | relative probability (RP) (MMP-2 [2]; [5]): 19.8208

GRGAN-LKTAS
Kobs (MMP-9; [3]): 951.362 M⁻¹ s⁻¹ | Kobs (MMP-2 [1]; [4]): 1816.46 M⁻¹ s⁻¹ | relative probability (RP) (MMP-2 [2]; [5]): 13.1428

GRIYE-LWTAS
Kobs (MMP-9; [3]): 1373.05 M⁻¹ s⁻¹ | Kobs (MMP-2 [1]; [4]): 585.336 M⁻¹ s⁻¹ | relative probability (RP) (MMP-2 [2]; [5]): 0.2382

GRLAS-LTASG
Kobs (MMP-9; [3]): 0 M⁻¹ s⁻¹ | Kobs (MMP-2 [1]; [4]): 12792.1 M⁻¹ s⁻¹ | relative probability (RP) (MMP-2 [2]; [5]): 31.1996

GRLGN-LWTAS
Kobs (MMP-9; [6]): 0 M⁻¹ s⁻¹ | Kobs (MMP-2 [1]; [7]): 5667.28 M⁻¹ s⁻¹ | relative probability (RP) (MMP-2 [2]; [8]): 33.3542

GRLRN-LVTAS
Kobs (MMP-9; [6]): 1925.41 M⁻¹ s⁻¹ | Kobs (MMP-2 [1]; [7]): 5461.43 M⁻¹ s⁻¹ | relative probability (RP) (MMP-2 [2]; [8]): 27.1336

GRMLH-LRTAS
Kobs (MMP-9; [6]): 836.403 M⁻¹ s⁻¹ | Kobs (MMP-2 [1]; [7]): 451.441 M⁻¹ s⁻¹ | relative probability (RP) (MMP-2 [2]; [8]): 8.417

GRPAD-LRTAS
Kobs (MMP-9; [6]): 12792.1 M⁻¹ s⁻¹ | Kobs (MMP-2 [1]; [7]): 12792.1 M⁻¹ s⁻¹ | relative probability (RP) (MMP-2 [2]; [8]): 30.0217

GRPRG-LTTAS
Kobs (MMP-9; [6]): 12792.1 M⁻¹ s⁻¹ | Kobs (MMP-2 [1]; [7]): 12792.1 M⁻¹ s⁻¹ | relative probability (RP) (MMP-2 [2]; [8]): 35.2511

GRPRS-LTASG
Kobs (MMP-9; [6]): 10866.7 M⁻¹ s⁻¹ | Kobs (MMP-2 [1]; [7]): 12792.1 M⁻¹ s⁻¹ | relative probability (RP) (MMP-2 [2]; [8]): 33.3704

GRVAY-LSTAS
Kobs (MMP-9; [6]): 56.119 M⁻¹ s⁻¹ | Kobs (MMP-2 [1]; [7]): 8941.32 M⁻¹ s⁻¹ | relative probability (RP) (MMP-2 [2]; [8]): 26.5348

GRVEL-LYTAS
Kobs (MMP-9; [3]): 0 M⁻¹ s⁻¹ | Kobs (MMP-2 [1]; [4]): 0 M⁻¹ s⁻¹ | relative probability (RP) (MMP-2 [2]; [5]): 0

GRVYD-LKTAS
Kobs (MMP-9; [3]): 2761.81 M⁻¹ s⁻¹ | Kobs (MMP-2 [1]; [4]): 585.336 M⁻¹ s⁻¹ | relative probability (RP) (MMP-2 [2]; [5]): 1.244

GSAVG-LRTAS
Kobs (MMP-9; [6]): 5667.28 M⁻¹ s⁻¹ | Kobs (MMP-2 [1]; [7]): 12792.1 M⁻¹ s⁻¹ | relative probability (RP) (MMP-2 [2]; [8]): 28.9998

GSFRG-LRTAS
Kobs (MMP-9; [3]): 451.441 M⁻¹ s⁻¹ | Kobs (MMP-2 [1]; [4]): 874.197 M⁻¹ s⁻¹ | relative probability (RP) (MMP-2 [2]; [5]): 7.475

GSGAA-LTMPT
Kobs (MMP-9; [3]): 84.609 M⁻¹ s⁻¹ | Kobs (MMP-2 [1]; [4]): 836.403 M⁻¹ s⁻¹ | relative probability (RP) (MMP-2 [2]; [5]): 15.7207

GSGAH-LQLST
Kobs (MMP-9; [6]): 292.668 M⁻¹ s⁻¹ | Kobs (MMP-2 [1]; [7]): 171.876 M⁻¹ s⁻¹ | relative probability (RP) (MMP-2 [2]; [8]): 8.464

GSGAS-LQMLT
Kobs (MMP-9; [3]): 84.609 M⁻¹ s⁻¹ | Kobs (MMP-2 [1]; [4]): 3253.29 M⁻¹ s⁻¹ | relative probability (RP) (MMP-2 [2]; [5]): 9.538

GSGFS-LRTWT
Kobs (MMP-9; [3]): 0 M⁻¹ s⁻¹ | Kobs (MMP-2 [1]; [4]): 0 M⁻¹ s⁻¹ | relative probability (RP) (MMP-2 [2]; [5]): 0.09752

GSGQH-LRKST
Kobs (MMP-9; [3]): 0 M⁻¹ s⁻¹ | Kobs (MMP-2 [1]; [4]): 171.876 M⁻¹ s⁻¹ | relative probability (RP) (MMP-2 [2]; [5]): 1.164

GSGQH-LRVHT
Kobs (MMP-9; [3]): 0 M⁻¹ s⁻¹ | Kobs (MMP-2 [1]; [4]): 113.394 M⁻¹ s⁻¹ | relative probability (RP) (MMP-2 [2]; [5]): 1.164

GSGRA-MYGTT
Kobs (MMP-9; [6]): 2476.66 M⁻¹ s⁻¹ | Kobs (MMP-2 [1]; [7]): 1513.13 M⁻¹ s⁻¹ | relative probability (RP) (MMP-2 [2]; [8]): 2.5449

GSGRH-LIKVT
Kobs (MMP-9; [3]): 27.918 M⁻¹ s⁻¹ | Kobs (MMP-2 [1]; [4]): 386.839 M⁻¹ s⁻¹ | relative probability (RP) (MMP-2 [2]; [5]): 3.598

GSGRN-LRLQT
Kobs (MMP-9; [6]): 113.394 M⁻¹ s⁻¹ | Kobs (MMP-2 [1]; [7]): 551.253 M⁻¹ s⁻¹ | relative probability (RP) (MMP-2 [2]; [8]): 8.812

GSGWA-LKKVT
Kobs (MMP-9; [3]): 0 M⁻¹ s⁻¹ | Kobs (MMP-2 [1]; [4]): 0 M⁻¹ s⁻¹ | relative probability (RP) (MMP-2 [2]; [5]): 0.09159

GSGYH-LRHTT
Kobs (MMP-9; [6]): 0 M⁻¹ s⁻¹ | Kobs (MMP-2 [1]; [7]): 231.616 M⁻¹ s⁻¹ | relative probability (RP) (MMP-2 [2]; [8]): 0.08149

GSGYS-LIALT
Kobs (MMP-9; [3]): 142.481 M⁻¹ s⁻¹ | Kobs (MMP-2 [1]; [4]): 142.481 M⁻¹ s⁻¹ | relative probability (RP) (MMP-2 [2]; [5]): 0.04707

GSHSN-LMTAS
Kobs (MMP-9; [3]): 56.119 M⁻¹ s⁻¹ | Kobs (MMP-2 [1]; [4]): 12792.1 M⁻¹ s⁻¹ | relative probability (RP) (MMP-2 [2]; [5]): 27.7336

GSLAH-LTASG
Kobs (MMP-9; [6]): 0 M⁻¹ s⁻¹ | Kobs (MMP-2 [1]; [7]): 12792.1 M⁻¹ s⁻¹ | relative probability (RP) (MMP-2 [2]; [8]): 32.813

GSMNS-LRTAS
Kobs (MMP-9; [6]): 874.197 M⁻¹ s⁻¹ | Kobs (MMP-2 [1]; [7]): 3741.87 M⁻¹ s⁻¹ | relative probability (RP) (MMP-2 [2]; [8]): 18.7113

GSPAS-LRTAS
Kobs (MMP-9; [6]): 12792.1 M⁻¹ s⁻¹ | Kobs (MMP-2 [1]; [7]): 12792.1 M⁻¹ s⁻¹ | relative probability (RP) (MMP-2 [2]; [8]): 36.4285

GSPMH-LITAS
Kobs (MMP-9; [3]): 9740.44 M⁻¹ s⁻¹ | Kobs (MMP-2 [1]; [4]): 6688.74 M⁻¹ s⁻¹ | relative probability (RP) (MMP-2 [2]; [5]): 30.095

GSPYG-LLTAS
Kobs (MMP-9; [6]): 12792.1 M⁻¹ s⁻¹ | Kobs (MMP-2 [1]; [7]): 8941.32 M⁻¹ s⁻¹ | relative probability (RP) (MMP-2 [2]; [8]): 32.9966
